Results on eleven molecules are retold here after patent publication US8889659B2, “Pain relief compositions, manufacture and uses” (API Genesis, LLC, priority 2011, dated 2014).

The structures appear in SMILES notation.

One data set relates to pain threshold. The note with it: in vivo; cited from earlier work.
For data set [1] the following is noted: cited from earlier work.
A short description of data set [2]: Diclofenac sodium solubility studies in solvents. Format: physicochemical. The note with it: for DICLOFENAC SODIUM SOLUBILITY: 2 wt. % Diclofenac Sodium. The procedure: All solubility samples were prepared in 20 gram sample size. The ingredients of each test samples were weighed to the nearest 0.01 grams. The 20 gram samples were mixed in 50 cc Pyrex glass beakers.
All solubility studies were performed with “Diclofenac Sodium Salt” obtained from Sigma Aldrich, St. Louis, Mo. (CAS #15307-79-6; Sigma-Aldrich Catalog No. D6899; Lot # BCBB7312; M.P. 275-277° C.)
The ingredients were thoroughly mixed at ambient temperatures ranging from 75° F. to 80° F.

A short description of data set [3]: Miscibility of diclofenac sodium and capsaicin liquid solutions. As for the experimental part: The table below includes the compositions of 7 completely miscible and transparent diclofenac sodium and capsaicin liquid solutions that were prepared.
It is evident that alcohols (ethyl alcohol and/or ethoxydiglycol) are required to effect the solubility of Diclofenac salts within the oil based ingredients of the capsaicin vehicles.

Data set [4] in a line: Solubility of nonivamide / capsaicin in methyl salicylate.
For the next data set, the system named is blood flow. The settings on record: […] gel, topical, cited from earlier work.
For a further data set, the system named is nasal airway resistance. The settings on record: intranasal use, cited from earlier work.

Take `CC(C)[C@@H]1CC[C@@H](C)C[C@H]1O` [(l)-menthol]: in the data set with pain threshold, the “analgesic effect (pain threshold)” value is “able to increase pain threshold”.
Regarding `CCOC(=O)c1ccc(N)cc1` [Benzocaine], in data set [1], the “Aqueous Soluble.” value is given as “sparingly” and the “Oil Soluble” value is given as “Soluble”.
`CC1CC[C@H](C(C)C)[C@@H](O)C1` (some centres unmarked) [(d)-menthol]: in the data set on pain threshold, the “analgesic effect (pain threshold)” value is given as “completely devoid of any analgesic effect”.
Take `O=C([O-])Cc1ccccc1Nc1c(Cl)cccc1Cl.[Na+]` [Diclofenac Sodium]: the “DICLOFENAC SODIUM SOLUBILITY” value is given as “Sparingly Soluble/Insoluble” in data set [2] (Sample 1: 98 wt. % Methyl Salicylate, ambient 75-80° F.); “Sparingly Soluble/Insoluble” in data set [2] (Sample 2: 50 wt. % Methyl Salicylate, 15 wt. % Menthol, 11 wt. % Camphor, 1.5 wt. % Phenol, 20.5 wt. % Macadamia Nut Oil); “^(10)Completely Soluble” in data set [2] (Sample 3: 98 wt. % Ethyl Alcohol); “^(10)Completely Soluble” in data set [2] (Sample 4: 98 wt. % Transcutol); “^(10)Completely Soluble” in data set [2] (Sample 5: 88 wt. % Methyl Salicylate, 10 wt. % Ethyl Alcohol); “Sparingly Soluble/Insoluble” in data set [2] (Sample 6: 50 wt. % Methyl Salicylate, 15 wt. % Menthol, 11 wt. % Camphor, 1.5 wt. % Phenol, 18.5 wt. % Macadamia Nut Oil). In addition, the “DICLOFENAC SODIUM SOLUBILITY” value in data set [2] (Sample 7: 50 wt. % Methyl Salicylate, 15 wt. % Menthol, 11 wt. % Camphor, 1.5 wt. % Phenol, 18.5 wt. % Ethyl Alcohol, 2 wt. % Capsaicin) was “^(10)Completely Soluble”; in data set [2] (Sample 8: 50 wt. % Methyl Salicylate, 15 wt. % Menthol, 11 wt. % Camphor, 1.5 wt. % Phenol, 10.5 wt. % Ethyl Alcohol, 2 wt. % Capsaicin) it was “^(10)Completely Soluble”. In addition, the “effect of heating to ˜35° C. on solubility” value in data set [2] (mixtures where solubility was sparingly soluble to insoluble) is “did not have a significant impact”. The “concentration with complete solubility/miscibility in the ethyl alcohol capsaicin vehicle” value in data set [3] was below 2 wt. %.
For `CCCCCCCCC(=O)NCc1ccc(O)c(OC)c1` [Nonivamide, vanillylamide of n-nonanoic acid], in data set [4], the “solubility levels in methyl salicylate” value is recorded as “exceeded 25 wt. %”. In addition, the “precipitation from 30 wt. % solution in methyl salicylate” value in data set [4] (after 2 weeks of storage at 5° C.) is recorded as “no evidence of any precipitation”; in data set [4] (powder added at ambient temperature, cooled to −10° C. for 10 hours), “did not result in the precipitation”.
Regarding `CC12CCC(CC1=O)C2(C)C` (centres unmarked) [Camphor], the “Oil Soluble” value in data set [1] was “soluble”.
Turning to `CC1CCC(C(C)C)C(O)C1` (centres unmarked) [Menthol], the “Oil Soluble” value in data set [1] is “soluble”. For the same molecule, the “blood flow remains reduced” value with blood flow (10 minutes after application) was around 20%. In addition, in the data set with blood flow (within 60 seconds of application), the “reduction of blood flow” value is recorded as 35%.
Take `COc1cc(CNC(=O)CCCC/C=C/C(C)C)ccc1O` [Capsaicin, N-(4-hydroxy-3-methoxybenzyl)-8-methylnon-trans-6-enamide]: in the data set on nasal airway resistance, the “reduction in nasal airway resistance” value is 60%. Besides, in the data set with nasal airway resistance (in most patients), the “effectiveness continued for” value is “more than 4 months”. In data set [1], the “Aqueous Soluble.” value is on record as “insoluble”; the “Oil Soluble” value was “soluble”; the “solubility in alcohol, methyl salicylate, ether, benzene and chloroform” value is listed as “freely soluble”; the solubility in water entry is given as “practically insoluble”.
For `CCCNC(C)C(=O)Nc1ccccc1C` (centres unmarked) [Prilocaine], in data set [1], the “Aqueous Soluble.” value is reported as “sparingly” and the “Oil Soluble” value is recorded as “soluble”.
`COC(=O)c1ccccc1O` [Methyl Salicylate, Methyl salicylate]: the “Aqueous Soluble.” value in data set [1] is given as “sparingly”.
For the molecule `CCO` [Ethyl Alcohol], in data set [1], the “Aqueous Soluble.” value was “miscible” and the “Oil Soluble” value was “soluble”.
